According to patent publication US4416884A, “Piperazinylbenzoheterocyclic compounds” (Otsuka Pharmaceutical Co., Ltd., priority 1978, dated 1983):
≈ marks a conversion by molar mass, not a printed value. Like-named read-outs stand apart in the source and are kept apart here.

Tests used:
Type in all cases: cell-based
[1] = test system: Test Organism 2 (Escherichia Coli NIHJ JC-2 (IFO 12734)); test: influence of the addition of horse serum on the MIC
[2] = test system: Streptococcus pneumoniae Type I; test: antimicrobial activity, serial dilution method on agar plate
How it was run: (§1)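 MIC (mcg/ml) read on Heart Infusion agar plates carrying serial compound dilutions. Organisms inoculated at two densities: 1×10^8 cells/ml, set by O.D. 660 mμ=0.07 to 0.16, and a 1×10^6 cells/ml dilution of that suspension.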

[3] = test system: Pseudomonas aeruginosa E-2; test: as above
How it was run: as §1

[4] = test system: Salmonella typhi 0-901 (NCTC 8393); test: as above; settings: Salmonella enterica, read-out: Minimum Inhibitory Concentration
How it was run: as §1

Hafnia alvei IFO 3731 = test: as above
How it was run: as §1

[5] = test system: Staphylococcus aureus FDA 209 P; test: as above
How it was run: as §1

[6] = test system: Pseudomonas aeruginosa ATCC 10145; test: as above
How it was run: as §1

[7] = test system: Pseudomonas putida IFO 13696; test: as above
How it was run: as §1

Klebsiella pneumoniae = test: as above
How it was run: as §1

[8] = test system: Proteus morganii IID Kono; test: as above; settings: Morganella morganii
How it was run: as §1

[9] = test system: Yersinia enterocolitica 0-3; test: as above
How it was run: as §1

[10] = test system: Serattia marcescens IFO 12648; test: as above
How it was run: as §1

Escherichia Coli NIHJ = test: as above
How it was run: as §1

Shigella Sonnei EW 33 = test: as above; settings: read-out: Minimum Inhibitory Concentration
How it was run: as §1

[11] = test system: Pseudomonas fluorescens IFO 12568; test: antimicrobial activity on bacteria which cause infectious diseases in fish
Method: (§2) The antimicrobial activity of the following test compounds on various test organisms listed below was determined by the serial dilution method on agar plate (Heart Infusion agar produced by Difco Co.) (see CHEMOTHERAPY 22, pp. 1126-1128 (1974)), and the minimum inhibitory concentrations (mcg/ml) obtained are shown in Table 1 below.
(§3) A sample of each test organism was prepared so that the population of the organism was 1×10^8 cells/ml (O.D. 660 mμ=0.07 to 0.16) and 1×10^6 cells/ml (which was obtained by diluting the above 1×10^8 cells/ml preparation).
(§4) In the same manner as above, the antimicrobial activity of the following compounds on various test organisms which cause infectious diseases in fish was determined.

[12] = test system: Aeromonas hydrophila IFO 12658; test: as above
Method: as §2, §3, §4

[13] = test system: Pseudomonas fluorescens IFO 12180; test: as above; settings: IFO12180, read-out: Minimum Inhibitory Concentration
Method: as §2, §3, §4

[14] = test system: Aeromonas salmonicida IFO 12718; test: as above
Method: as §2, §3, §4

[15] = test system: Aeromonas salmonicida IFO 12659; test: as above
Method: as §2, §3, §4

[16] = test system: Vibrio anguillarum IFO 12710; test: as above
Method: as §2, §3, §4

[17] = test system: Vibrio anguillarum IFO 13266; test: as above
Method: as §2, §3, §4

[18] = test system: Aeromonas hydrophila IFO 12981; test: as above
Method: as §2, §3, §4

[19] = test system: Test Organism 27 (Streptococcus pneumoniae Type III); test: influence of the addition of horse serum on the MIC
[20] = test system: Test Organism 21 (Bacillus subtilis PCI 219); test: as above
[21] = read-out: Minimum Inhibitory Concentration, horse serum 0%, inoculum 10^6
[22] = read-out: Minimum Inhibitory Concentration, horse serum 0%, inoculum 10^8
[23] = read-out: Minimum Inhibitory Concentration, horse serum 10%, inoculum 10^6
[24] = read-out: Minimum Inhibitory Concentration, horse serum 10%, inoculum 10^8
[25] = read-out: Minimum Inhibitory Concentration, horse serum 20%, inoculum 10^6
[26] = read-out: Minimum Inhibitory Concentration, horse serum 20%, inoculum 10^8
[27] = read-out: Minimum Inhibitory Concentration, horse serum 40%, inoculum 10^6
[28] = read-out: Minimum Inhibitory Concentration, horse serum 40%, inoculum 10^8
[29] = read-out: Minimum Inhibitory Concentration, inoculum 1 × 10^6 cells/ml
[30] = read-out: Minimum Inhibitory Concentration, inoculum 1 × 10^8 cells/ml

## CC1CCc2c(N3CCNCC3)ccc3c(=O)c(C(=O)O)cn1c23 (centres unmarked) [A]
[1]; [21]
  MIC: 1.6 µg/mL (≈ 4.89 µM)
[1]; [22]
  MIC: 1.6 µg/mL (≈ 4.89 µM)
[1]; [23]
  MIC: 0.8 µg/mL (≈ 2.44 µM)
[1]; [24]
  MIC: 0.8 µg/mL (≈ 2.44 µM)
[1]; [25]
  MIC: 0.8 µg/mL (≈ 2.44 µM)
[1]; [26]
  MIC: 0.8 µg/mL (≈ 2.44 µM)
[1]; [27]
  MIC: 0.4 µg/mL (≈ 1.22 µM)
[1]; [28]
  MIC: 0.4 µg/mL (≈ 1.22 µM)
[2]; [29]
  MIC: 3.1 µg/mL (≈ 9.47 µM)
[2]; [30]
  MIC: 12.5 µg/mL (≈ 38.2 µM)
[3]; E2, read-out: Minimum Inhibitory Concentration, inoculum 1 × 10^6 cells/ml
  MIC: 6.3 µg/mL (≈ 19.2 µM)
[3]; E2, read-out: Minimum Inhibitory Concentration, inoculum 1 × 10^8 cells/ml
  MIC: 12.5 µg/mL (≈ 38.2 µM)
[4]; inoculum 1 × 10^6 cells/ml
  MIC: 0.2 µg/mL (≈ 0.611 µM)
[4]; inoculum 1 × 10^8 cells/ml
  MIC: 0.4 µg/mL (≈ 1.22 µM)
Hafnia alvei IFO 3731; IFO3731, read-out: Minimum Inhibitory Concentration, inoculum 1 × 10^6 cells/ml
  MIC: 3.1 µg/mL (≈ 9.47 µM)
Hafnia alvei IFO 3731; IFO3731, read-out: Minimum Inhibitory Concentration, inoculum 1 × 10^8 cells/ml
  MIC: 6.3 µg/mL (≈ 19.2 µM)
[5]; FDA209, read-out: Minimum Inhibitory Concentration, inoculum 1 × 10^6 cells/ml
  MIC: 3.1 µg/mL (≈ 9.47 µM)
[5]; FDA209, read-out: Minimum Inhibitory Concentration, inoculum 1 × 10^8 cells/ml
  MIC: 6.3 µg/mL (≈ 19.2 µM)
[6]; ATCC10145, read-out: Minimum Inhibitory Concentration, inoculum 1 × 10^6 cells/ml
  MIC: 6.3 µg/mL (≈ 19.2 µM)
[6]; ATCC10145, read-out: Minimum Inhibitory Concentration, inoculum 1 × 10^8 cells/ml
  MIC: 6.3 µg/mL (≈ 19.2 µM)
[7]; IFO13696, read-out: Minimum Inhibitory Concentration, inoculum 1 × 10^6 cells/ml
  MIC: 1.6 µg/mL (≈ 4.89 µM)
[7]; IFO13696, read-out: Minimum Inhibitory Concentration, inoculum 1 × 10^8 cells/ml
  MIC: 3.1 µg/mL (≈ 9.47 µM)
Klebsiella pneumoniae; [29]
  MIC: 1.6 µg/mL (≈ 4.89 µM)
Klebsiella pneumoniae; [30]
  MIC: 1.6 µg/mL (≈ 4.89 µM)
[8]; [29]
  MIC: 3.1 µg/mL (≈ 9.47 µM)
[8]; [30]
  MIC: 6.3 µg/mL (≈ 19.2 µM)
[9]; Yersinia enterocolitica, 03, read-out: Minimum Inhibitory Concentration, inoculum 1 × 10^6 cells/ml
  MIC: 1.6 µg/mL (≈ 4.89 µM)
[9]; Yersinia enterocolitica, 03, read-out: Minimum Inhibitory Concentration, inoculum 1 × 10^8 cells/ml
  MIC: 3.1 µg/mL (≈ 9.47 µM)
[10]; [29]
  MIC: 1.6 µg/mL (≈ 4.89 µM)
[10]; [30]
  MIC: 3.1 µg/mL (≈ 9.47 µM)
Escherichia Coli NIHJ; [29]
  MIC: 0.4 µg/mL (≈ 1.22 µM)
Escherichia Coli NIHJ; [30]
  MIC: 0.8 µg/mL (≈ 2.44 µM)
Shigella Sonnei EW 33; inoculum 1 × 10^6 cells/ml
  MIC: 0.4 µg/mL (≈ 1.22 µM)
Shigella Sonnei EW 33; inoculum 1 × 10^8 cells/ml
  MIC: 0.8 µg/mL (≈ 2.44 µM)
[11]; IFO12568, read-out: Minimum Inhibitory Concentration, inoculum 10^6
  MIC: 12.5 µg/mL (≈ 38.2 µM)
[11]; IFO12568, read-out: Minimum Inhibitory Concentration, inoculum 10^8
  MIC: 25 µg/mL (≈ 76.4 µM)
[12]; IFO12658, inoculum 10^6, read-out: Minimum Inhibitory Concentration
  MIC: 0.1 µg/mL (≈ 0.305 µM)
[12]; IFO12658, inoculum 10^8, read-out: Minimum Inhibitory Concentration
  MIC: 0.2 µg/mL (≈ 0.611 µM)
[13]
  MIC: 3.1 µg/mL (≈ 9.47 µM)
[14]; IFO12718, inoculum 10^6, read-out: Minimum Inhibitory Concentration
  MIC: 0.2 µg/mL (≈ 0.611 µM)
[14]; IFO12718, inoculum 10^8, read-out: Minimum Inhibitory Concentration
  MIC: 0.4 µg/mL (≈ 1.22 µM)
[15]; IFO12659, inoculum 10^6, read-out: Minimum Inhibitory Concentration
  MIC: 0.2 µg/mL (≈ 0.611 µM)
[15]; IFO12659, inoculum 10^8, read-out: Minimum Inhibitory Concentration
  MIC: 0.4 µg/mL (≈ 1.22 µM)
[16]; IFO12710, read-out: Minimum Inhibitory Concentration, inoculum 10^6
  MIC: 3.1 µg/mL (≈ 9.47 µM)
[16]; IFO12710, read-out: Minimum Inhibitory Concentration, inoculum 10^8
  MIC: 3.1 µg/mL (≈ 9.47 µM)
[17]; IFO13266, read-out: Minimum Inhibitory Concentration, inoculum 10^6
  MIC: 0.1 µg/mL (≈ 0.305 µM)
[17]; IFO13266, read-out: Minimum Inhibitory Concentration, inoculum 10^8
  MIC: 0.2 µg/mL (≈ 0.611 µM)
[18]; IFO12981, inoculum 10^6, read-out: Minimum Inhibitory Concentration
  MIC: 0.2 µg/mL (≈ 0.611 µM)
[18]; IFO12981, inoculum 10^8, read-out: Minimum Inhibitory Concentration
  MIC: 0.2 µg/mL (≈ 0.611 µM)
[19]; [21]
  MIC: 6.3 µg/mL (≈ 19.2 µM)
[19]; [22]
  MIC: 12.5 µg/mL (≈ 38.2 µM)
[19]; [23]
  MIC: 6.3 µg/mL (≈ 19.2 µM)
[19]; [24]
  MIC: 6.3 µg/mL (≈ 19.2 µM)
[19]; [25]
  MIC: 6.3 µg/mL (≈ 19.2 µM)
[19]; [26]
  MIC: 6.3 µg/mL (≈ 19.2 µM)
[19]; [27]
  MIC: 3.1 µg/mL (≈ 9.47 µM)
[19]; [28]
  MIC: 6.3 µg/mL (≈ 19.2 µM)
[20]; [21]
  MIC: 3.1 µg/mL (≈ 9.47 µM)
[20]; [22]
  MIC: 6.3 µg/mL (≈ 19.2 µM)
[20]; [23]
  MIC: 3.1 µg/mL (≈ 9.47 µM)
[20]; [24]
  MIC: 3.1 µg/mL (≈ 9.47 µM)
[20]; [25]
  MIC: 0.8 µg/mL (≈ 2.44 µM)
[20]; [26]
  MIC: 1.6 µg/mL (≈ 4.89 µM)
[20]; [27]
  MIC: 0.8 µg/mL (≈ 2.44 µM)
[20]; [28]
  MIC: 0.8 µg/mL (≈ 2.44 µM)
